Assay results from the supplement of paper PMC10307832.

Columns and labels:
Test in all cases: relative viability (nuclei count vs DMSO), 5 days (fraction); higher = more cells survive
BMX-IN-1 + Crizotinib = compound: C=CC(=O)Nc1cc(-n2c(=O)ccc3cnc4ccc(-c5ccc(NS(C)(=O)=O)cc5)cc4c32)ccc1C [BMX-IN-1] + C[C@@H](Oc1cc(-c2cnn(C3CCNCC3)c2)cnc1N)c1c(Cl)ccc(F)c1Cl [Crizotinib] (partner 1 µM)
Method in brief: (§1)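 Nuclei were stained with Hoechst during a one-step fixation (final 0.05% Triton X-100, 1% formaldehyde, 1 ug/ml Hoechst) carried out 5 days after dosing, then counted on 4× images. The cells, lung cancer lines in 1536-well plates, had been dosed by pin tool the day after seeding with one drug alone or a fixed anchor-drug dose plus five library-drug doses (not always all listed) in √10 steps. Relative viability is the nuclei count in treated wells divided by that in vehicle wells, and each value is the median of duplicate plates.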

BMX-IN-1 + Alpelisib = compound: C=CC(=O)Nc1cc(-n2c(=O)ccc3cnc4ccc(-c5ccc(NS(C)(=O)=O)cc5)cc4c32)ccc1C [BMX-IN-1] + Cc1nc(NC(=O)N2CCC[C@H]2C(N)=O)sc1-c1ccnc(C(C)(C)C(F)(F)F)c1 [Alpelisib] (partner 2 µM)
Method in brief: as §1

BMX-IN-1 + Decitabine = compound: C=CC(=O)Nc1cc(-n2c(=O)ccc3cnc4ccc(-c5ccc(NS(C)(=O)=O)cc5)cc4c32)ccc1C [BMX-IN-1] + Nc1ncn([C@H]2C[C@H](O)[C@@H](CO)O2)c(=O)n1 [Decitabine] (partner 2 µM)
Method in brief: as §1

PAC-1 + Palbociclib = compound: C=CCc1cccc(/C=N/NC(=O)CN2CCN(Cc3ccccc3)CC2)c1O [PAC-1] + CC(=O)c1c(C)c2cnc(Nc3ccc(N4CCNCC4)cn3)nc2n(C2CCCC2)c1=O [Palbociclib] (partner 0.5 µM)
Method in brief: as §1

PAC-1 + Vorinostat = compound: C=CCc1cccc(/C=N/NC(=O)CN2CCN(Cc3ccccc3)CC2)c1O [PAC-1] + O=C(CCCCCCC(=O)Nc1ccccc1)NO [Vorinostat] (partner 1 µM)
Method in brief: as §1

| Cell Line | relative viability (BMX-IN-1 + Crizotinib; first compound 0.02 µM) | relative viability (BMX-IN-1 + Crizotinib; first compound 0.2 µM) | relative viability (BMX-IN-1 + Crizotinib; first compound 0.6325 µM) | relative viability (BMX-IN-1 + Crizotinib; first compound 2 µM) | relative viability (BMX-IN-1 + Alpelisib; first compound 0.02 µM) | relative viability (BMX-IN-1 + Alpelisib; first compound 0.2 µM) | relative viability (BMX-IN-1 + Alpelisib; first compound 0.6325 µM) | relative viability (BMX-IN-1 + Alpelisib; first compound 2 µM) | relative viability (BMX-IN-1 + Decitabine; first compound 0.02 µM) | relative viability (BMX-IN-1 + Decitabine; first compound 0.2 µM) | relative viability (BMX-IN-1 + Decitabine; first compound 0.6325 µM) | relative viability (BMX-IN-1 + Decitabine; first compound 2 µM) | relative viability (PAC-1 + Palbociclib; first compound 0.02 µM) | relative viability (PAC-1 + Palbociclib; first compound 0.06325 µM) | relative viability (PAC-1 + Palbociclib; first compound 0.2 µM) | relative viability (PAC-1 + Palbociclib; first compound 2 µM) | relative viability (PAC-1 + Vorinostat; first compound 0.02 µM) | relative viability (PAC-1 + Vorinostat; first compound 0.06325 µM) | relative viability (PAC-1 + Vorinostat; first compound 0.2 µM) | relative viability (PAC-1 + Vorinostat; first compound 2 µM) |
| --- | --- | --- | --- | --- | --- | --- | --- | --- | --- | --- | --- | --- | --- | --- | --- | --- | --- | --- | --- | --- |
| HCC-44 | 0.907 | 0.834 | 0.944 | 0.889 | 0.869 | 0.905 | 1.01 | 0.794 | 0.988 | 0.969 | 1.01 | 0.981 | 1.04 | 0.984 | 0.965 | 0.993 | 1.11 | 1.05 | 1.03 | 1.09 |
| HCC-78 | 0.379 | 0.347 | 0.335 | 0.405 | 0.355 | 0.319 | 0.391 | 0.175 | 0.743 | 0.766 | 0.789 | 0.802 | 0.477 | 0.454 | 0.505 | 0.465 | 0.379 | 0.416 | 0.435 | 0.431 |
| HCC-366 | 0.582 | 1.01 | 0.586 | 0.703 | 0.704 | 0.575 | 0.412 | 0.354 | 0.356 | 0.378 | 0.416 | 0.39 | 0.364 | 0.377 | 0.365 | 0.404 | 0.396 | 0.339 | 0.258 | 0.449 |
| HCC-827 | 0.972 | 0.939 | 0.939 | 0.97 | 0.95 | 0.889 | 1.05 | 0.946 | 0.27 | 0.31 | 0.342 | 0.292 | 0.482 | 0.461 | 0.442 | 0.473 | 0.903 | 0.857 | 0.752 | 0.841 |
| HOP-62 | 0.76 | 1.04 | 0.98 | 0.959 | 0.813 | 0.918 | 0.926 | 0.914 | 0.214 | 0.255 | 0.26 | 0.237 | 0.463 | 0.437 | 0.51 | 0.46 | 0.596 | 0.518 | 0.473 | 0.655 |
| IA-LM | 0.875 | 0.865 | 0.99 | 0.772 | 0.854 | 0.697 | 1.07 | 0.916 | – | – | – | – | – | – | – | – | 1.15 | 0.915 | 0.879 | 0.961 |
| LC-2-ad | 0.374 | 0.518 | 0.484 | 0.494 | 0.915 | 0.962 | 0.998 | 0.898 | 0.836 | 0.938 | 0.889 | 0.733 | 0.513 | 0.439 | 0.492 | 0.496 | 0.743 | 0.632 | 0.691 | 0.698 |
| LCLC-97TM1 | 0.343 | 0.429 | 0.363 | 0.387 | 0.283 | 0.222 | 0.244 | 0.294 | 0.259 | 0.224 | 0.208 | 0.264 | 0.211 | 0.274 | – | 0.225 | 0.776 | 0.805 | – | 0.761 |
| NCI-H522 | – | – | – | – | – | – | – | – | 0.692 | 0.633 | 0.725 | 0.624 | 0.866 | 0.984 | 0.962 | 1.11 | 0.902 | 0.846 | 0.941 | 0.862 |
| NCI-H596 | 1.13 | 1.18 | 1.03 | 0.827 | 0.511 | 0.535 | 0.544 | 0.54 | 1.04 | 1.14 | 0.945 | 1.2 | – | – | – | – | 0.619 | 0.603 | 0.643 | 0.741 |
| NCI-H1299 | 0.798 | 1.03 | 0.97 | 1.01 | 1.14 | 1.17 | 1.1 | 1.16 | – | – | – | – | – | – | – | – | – | – | – | – |
| NCI-H1395 | – | – | – | – | 1.07 | 1.05 | 1.15 | 0.962 | 0.781 | 0.695 | 0.677 | 0.769 | 0.624 | 0.648 | 0.593 | 0.572 | 0.704 | 0.747 | 0.784 | 0.623 |
| NCI-H1563 | 0.794 | 0.887 | 0.86 | 0.761 | 0.997 | 0.902 | 0.904 | 0.893 | – | – | – | – | – | – | – | – | – | – | – | – |
| NCI-H1648 | – | – | – | – | – | – | – | – | 0.511 | 0.467 | 0.616 | 0.506 | 0.299 | 0.243 | 0.26 | 0.228 | 0.49 | 0.42 | 0.431 | 0.463 |
| NCI-H1650 | 1.15 | 1.11 | 1.03 | 0.918 | – | – | – | – | 0.438 | 0.385 | 0.473 | 0.548 | 0.334 | 0.375 | 0.333 | 0.274 | 0.507 | 0.672 | 0.52 | 0.418 |
| NCI-H1703 | 0.821 | 0.952 | 0.631 | 0.56 | 0.359 | 0.254 | 0.269 | 0.252 | – | – | – | – | – | – | – | – | – | – | – | – |
| NCI-H1792 | 0.886 | 1.7 | 0.855 | 0.977 | 0.585 | 0.473 | 0.579 | 0.684 | 0.539 | 0.615 | 0.525 | 0.568 | 0.692 | 0.627 | 0.64 | 0.627 | – | – | – | – |
| NCI-H1793 | – | – | – | – | 1.14 | 0.873 | 0.665 | 0.563 | 0.45 | 0.535 | 0.471 | 0.589 | 0.307 | 0.324 | 0.271 | 0.302 | 0.653 | 0.814 | 0.741 | 0.894 |
| NCI-H2228 | 0.52 | 0.354 | 0.417 | 0.495 | 0.906 | 1.04 | 1.16 | 0.822 | – | – | – | – | 1.03 | 0.921 | 0.804 | 0.797 | 0.699 | 0.932 | 0.546 | 0.504 |
| NCI-H2342 | – | – | – | – | – | – | – | – | 0.698 | 0.751 | 0.748 | 0.742 | 0.531 | 0.561 | 0.54 | 0.564 | 0.733 | 0.659 | 0.802 | 0.739 |
| SW 900 | – | – | – | – | – | – | – | – | 0.564 | 0.51 | 0.461 | 0.539 | – | 0.599 | 0.554 | 0.474 | – | 0.41 | 0.494 | 0.553 |
